Experimental data taken from US20230131427A1, “FUNGICIDAL COMPOSITIONS” (SYNGENTA CROP PROTECTION AG, priority 2020, published 2023).
Read-outs that look alike come from different tables or passages of the source.

Tests used:
[1] = test system: Septoria glycines; test: Example B2: mixtures, preventative activity against Septoria glycines (brown spot), liquid culture; type: cell-based; conditions: component B alone
Excerpt: (§1) This occurs whenever the action of an active ingredient combination is greater than the sum of the actions of the individual components. The action to be expected E for a given active ingredient combination obeys the so-called COLBY formula and can be calculated as follows (COLBY, S. R. “Calculating synergistic and antagonistic responses of herbicide combination”. Weeds, Vol. 15, pages 20-22; 1967):
(§2) If the action actually observed (O) is greater than the expected action (E), then the action of the combination is super-additive, i.e. there is a synergistic effect. In mathematical terms, synergism corresponds to a positive value for the difference of (O-E). In the case of purely complementary addition of activities (expected activity), said difference (O-E) is zero. A negative value of said difference (O-E) signals a loss of activity compared to the expected activity.
Conidia of the fungus harvested from a fresh culture grown on artificial media, were directly mixed into nutrient broth (PDB potato dextrose broth). A DMSO solution of the test compounds was placed into a microtiter plate (96-well format) and the nutrient broth containing the fungal spores was added to it.
(§3) Fungicidal activity was evaluated on a 100-0 scale (100=no disease growth; 0=well completely covered by mycelium).

[2] = test system: Septoria tritici; test: Example B3: mixtures, preventative activity against Septoria tritici (leaf blotch), liquid culture; type: cell-based; conditions: component B alone
Excerpt: as §1, §2
(§4) Conidia of the fungus from cryogenic storage were directly mixed into nutrient broth (PDB potato dextrose broth). A DMSO solution of the test compounds was placed into a microtiter plate (96-well format) and the nutrient broth containing the fungal spores was added to it.
as §3

[3] = test system: Phakopsora pachyrhizi; test: Example B5: preventative activity against Phakopsora pachyrhizi (soybean rust), whole soybean plants sprayed, leaf disks inoculated; type: in vivo; conditions: for inhibition at 22.5 g/ha / inhibition at 45 g/ha / inhibition at 90 g/ha / inhibition at 2.25 g/ha / inhibition at 4.5 g/ha / inhibition at 18 g/ha / inhibition at 225 g/ha / inhibition at 450 g/ha: Phakopsora pachyrhizi, foliar
Experimental: Whole soybean plants are treated with the recited active ingredients 4 weeks after planting. 1 day after spraying leaf disks are cut from the first trifoliate leaf. Five repetitions at each rate are conducted. The leaf disks are inoculated with Phakopsora pachyrhizi (Asian soybean rust) one day after treatment.
Evaluation of the leaf disks is conducted 11 to 14 days after inoculation and the activity is derived from the relation of the treated vs untreated, infested check (100=no disease, no damage to the leaf, 0=high infestation, leaf damaged heavily). The rates of the active ingredients used are given in the tables as g active ingredient (a.i.)/ha.

[4] = test system: Glomerella lagenarium syn. Colletotrichum lagenarium; test: Example B1: mixtures, preventative activity against Glomerella lagenarium syn. Colletotrichum lagenarium, liquid culture; type: cell-based; conditions: component B alone; for inhibition at 0.1 ppm / inhibition at 0.3 ppm: Colletotrichum orbiculare, read-out: Activity (%) B
Excerpt: as §1, §2, §4, §3

[5] = Zymoseptoria tritici, 0.1 ppm, 100-0 scale, read-out: Activity (%) B
[6] = Septoria glycines, 0.1 ppm, 100-0 scale, read-out: Activity (%) B
[7] = Septoria glycines, 0.3 ppm, 100-0 scale
[8] = active ingredient alone, 22.5 g/ha, read-out: Observed Activity (%) (% of untreated)
[9] = active ingredient alone, 45 g/ha, read-out: Observed Activity (%) (% of untreated)
[10] = active ingredient alone, 90 g/ha, read-out: Observed Activity (%) (% of untreated)
[11] = applied alone, 22.5 g/ha, read-out: Observed Activity (% of untreated) against Phakopsora pachyrhizi
[12] = applied alone, 45 g/ha, read-out: Observed Activity (% of untreated) against Phakopsora pachyrhizi
[13] = applied alone, 90 g/ha, read-out: Observed Activity (% of untreated) against Phakopsora pachyrhizi
[14] = read-out: Observed Activity (% of untreated) against Phakopsora pachyrhizi
[15] = read-out: Observed Activity (%) (% of untreated) against Phakopsora pachyrhizi

Molecule: O=C(Nc1ccccc1F)c1ccc(-c2noc(C(F)(F)F)n2)cc1 [N-(2-fluorophenyl)-4-[5-(trifluoromethyl)-1,2,4-oxadiazol-3-yl]benzamide]
- inhibition at 10 ppm ([1]; Septoria glycines): 0%
- inhibition at 10 ppm ([1]; Septoria glycines, 100-0 scale): 0%
- inhibition at 20 ppm ([1]; Septoria glycines): 0%
- inhibition at 20 ppm ([1]; Septoria glycines, 100-0 scale): 0%
- inhibition at 10 ppm ([2]; Zymoseptoria tritici, 72 h, 10 ppm): 0%
- inhibition at 20 ppm ([2]; Zymoseptoria tritici, 72 h, 20 ppm): 0%

Molecule: OC(Cn1cncn1)(c1ccc(F)cc1)c1ccccc1F (stereo not drawn) [flutriafol]
- Activity (%) B ([1]; 0.1 ppm): 20%
- Activity (%) B ([1]; 0.3 ppm): 70%

Molecule: CON(C(=O)c1cn(C)nc1C(F)F)C(C)Cc1c(Cl)cc(Cl)cc1Cl (stereo not drawn) [pydiflumetofen, reference compound]
- Observed Activity (%) (% of untreated) against Phakopsora pachyrhizi ([3]; applied alone, 22.5 g/ha): 28%
- Observed Activity (%) (% of untreated) against Phakopsora pachyrhizi ([3]; applied alone, 45 g/ha): 74%
- Activity (%) B ([4]; 0.1 ppm): 0%
- Activity (%) B ([4]; 0.3 ppm): 0%

Molecule: CC(Cc1ccc(C(C)(C)C)cc1)CN1CCCCC1 (stereo not drawn) [fenpropidin]
- inhibition at 0.1 ppm [2, 5]: 0%
- inhibition at 0.3 ppm ([2]; Zymoseptoria tritici, 0.3 ppm, 100-0 scale, read-out: Activity (%) B): 0%

Molecule: CCC(=O)Oc1c(OC)ccnc1C(=O)N[C@@H](C)C(=O)O[C@@H](C)[C@@H](C)c1ccccc1C [[(1S,2S)-1-methyl-2-(o-tolyl)propyl](2S)-2-[(4-methoxy-3-propanoyloxy-pyridine-2-carbonyl)amino]propanoate, reference compound]
- inhibition at 0.03 ppm ([1]; Septoria glycines, 0.03 ppm, 100-0 scale, read-out: Activity (%) B): 0%
- inhibition at 0.06 ppm ([1]; Septoria glycines, 0.06 ppm, 100-0 scale): 0%
- inhibition at 0.03 ppm ([2]; Zymoseptoria tritici, 72 h, 0.03 ppm, 72 hrs, read-out: Activity (%) B): 50%
- inhibition at 0.06 ppm ([2]; Zymoseptoria tritici, 72 h, 0.06 ppm): 70%

Molecule: CC(C1CC1)C(O)(Cn1cncn1)c1ccc(Cl)cc1 (stereo not drawn) [cyproconazole, reference compound]
- inhibition at 0.1 ppm [1, 6]: 50%
- inhibition at 0.3 ppm ([1]; Septoria glycines, 0.3 ppm): 70%
- inhibition at 0.3 ppm [1, 7]: 70%
- inhibition at 0.1 ppm ([2]; Zymoseptoria tritici, 72 h, 0.1 ppm, 72 hrs, 100=no disease growth, read-out: Activity (%) B): 20%
- inhibition at 0.3 ppm ([2]; Zymoseptoria tritici, 72 h, 0.3 ppm, 72 hrs, read-out: Activity (%) B): 50%
- inhibition at 0.1 ppm [2, 5]: 20%
- inhibition at 22.5 g/ha [3, 8]: 15%
- inhibition at 45 g/ha [3, 9]: 69%
- inhibition at 90 g/ha [3, 10]: 84%
- inhibition at 22.5 g/ha [3, 11]: 15%
- inhibition at 45 g/ha [3, 12]: 69%
- inhibition at 90 g/ha [3, 13]: 84%

Molecule: Mancozeb
- Observed Activity (% of untreated) against Phakopsora pachyrhizi ([3]; applied alone, 225 g/ha): 20%
- Observed Activity (% of untreated) against Phakopsora pachyrhizi ([3]; applied alone, 450 g/ha): 34%

Molecule: CC(C)c1ccc(Cl)cc1CN(C(=O)c1c(C(F)F)nn(C)c1F)C1CC1 [Isoflucypram]
- Observed Activity (% of untreated) against Phakopsora pachyrhizi ([3]; applied alone, 2.25 g/ha): 2%
- Observed Activity (% of untreated) against Phakopsora pachyrhizi ([3]; applied alone, 4.5 g/ha): 1%
- Observed Activity (% of untreated) against Phakopsora pachyrhizi ([3]; applied alone, 9 g/ha): 0%

Molecule: CCOC(=O)C1CC(=O)C(=C(O)C2CC2)C(=O)C1 (stereo not drawn) [trinexapac-ethyl, reference compound]
- inhibition at 22.5 g/ha [3, 11]: 0%
- inhibition at 22.5 g/ha ([3]; applied alone, 22.5 g/ha, read-out: Observed Activity (%) (% of untreated) against Phakopsora pachyrhizi): 0%
- inhibition at 45 g/ha [3, 12]: 0%
- inhibition at 45 g/ha ([3]; applied alone, 45 g/ha, read-out: Observed Activity (%) (% of untreated) against Phakopsora pachyrhizi): 0%
- inhibition at 0.1 ppm ([4]; 0.1 ppm): 0%
- inhibition at 0.3 ppm ([4]; 0.3 ppm): 0%

Molecule: COC(=O)N(OC)c1ccccc1COc1ccn(-c2ccc(Cl)cc2)n1 [pyraclostrobin, reference compound]
- inhibition at 2.25 g/ha ([3]; active ingredient alone, 2.25 g/ha, read-out: Observed Activity (%) (% of untreated)): 0%
- inhibition at 4.5 g/ha ([3]; active ingredient alone, 4.5 g/ha, read-out: Observed Activity (%) (% of untreated)): 0%
- inhibition at 18 g/ha ([3]; active ingredient alone, 18 g/ha, read-out: Observed Activity (%) (% of untreated)): 13%
- inhibition at 2.25 g/ha ([3]; applied alone, 2.25 g/ha, read-out: Observed Activity (% of untreated) against Phakopsora pachyrhizi): 0%
- inhibition at 4.5 g/ha ([3]; applied alone, 4.5 g/ha, read-out: Observed Activity (% of untreated) against Phakopsora pachyrhizi): 0%
- inhibition at 18 g/ha ([3]; applied alone, 18 g/ha, read-out: Observed Activity (% of untreated) against Phakopsora pachyrhizi): 13%
- Observed Activity (% of untreated) against Phakopsora pachyrhizi ([3]; applied alone, 9 g/ha): 1%

Molecule: CC1(C)N=C(c2cnc3ccccc3c2)c2ccccc2C1(F)F [quinofumelin]
- Activity (%) B ([2]; 0.1 ppm, 100-0 scale): 0%
- Activity (%) B ([2]; 0.3 ppm, 100-0 scale): 0%

Molecule: CC(Cc1ccc(C(C)(C)C)cc1)CN1C[C@@H](C)O[C@@H](C)C1 (stereo partly drawn) [fenpropimorph]
- inhibition at 0.1 ppm [1, 6]: 20%
- inhibition at 0.1 ppm ([1]; Septoria glycines, 0.1 ppm, read-out: Activity (%) B): 20%
- inhibition at 0.3 ppm ([1]; Septoria glycines, 0.3 ppm): 50%
- inhibition at 0.3 ppm [1, 7]: 50%

Molecule: CC(O)(Cn1cncn1)c1ccc(Oc2ccc(Cl)cc2)cc1C(F)(F)F (stereo not drawn) [mefentrifluconazole, reference compound]
- Observed Activity (% of untreated) against Phakopsora pachyrhizi ([3]; applied alone, 22.5 g/ha): 1%
- Observed Activity (%) (% of untreated) against Phakopsora pachyrhizi ([3]; applied alone, 22.5 g/ha): 1%
- Observed Activity (% of untreated) against Phakopsora pachyrhizi ([3]; applied alone, 45 g/ha): 20%
- Observed Activity (%) (% of untreated) against Phakopsora pachyrhizi ([3]; applied alone, 45 g/ha): 20%

Molecule: CC(C)C1C2CCC1c1c(NC(=O)c3cn(C)nc3C(F)F)cccc12 (stereo not drawn) [isopyrazam]
- Activity (%) B ([2]; 0.1 ppm, 100-0 scale): 50%
- Activity (%) B ([2]; 0.1 ppm, 72 hrs, 100=no disease growth): 50%
- Activity (%) B ([2]; 0.3 ppm, 100-0 scale): 70%
- Activity (%) B ([2]; 0.3 ppm, 72 hrs): 70%

Molecule: O=C(O)CNCP(=O)(O)O [Glyphosate]
- inhibition at 45 g/ha [3, 14]: 1%
- inhibition at 90 g/ha [3, 14]: 0%
- inhibition at 45 g/ha [3, 15]: 1%
- inhibition at 90 g/ha [3, 15]: 0%

Molecule: COc1ccnc(C(=O)N[C@@H](C)C(=O)O[C@@H](C)[C@H](c2ccc(F)cc2C)C(C)C)c1OCOC(C)=O [[(1S,2S)-2-(4-fluoro-2-methyl-phenyl)-1,3-dimethyl-butyl](2S)-2-[[3-(acetoxymethoxy)-4-methoxy-pyridine-2-carbonyl]amino]propanoate]
- inhibition at 0.1 ppm ([4]; 0.1 ppm): 20%
- inhibition at 0.3 ppm ([4]; 0.3 ppm): 70%

Molecule: S1SSSSSSS1 [sulphur]
- inhibition at 0.1 ppm ([4]; 0.1 ppm): 0%
- inhibition at 0.3 ppm ([4]; 0.3 ppm): 0%

Molecule: CC(Cc1ccc(C(C)(C)C)cc1)CN1CCCCC1 (stereo not drawn) [Fenpropidin]
- inhibition at 225 g/ha ([3]; applied alone, 225 g/ha, read-out: Observed Activity (% of untreated) against Phakopsora pachyrhizi): 72%
- inhibition at 225 g/ha ([3]; applied alone, 225 g/ha, read-out: Observed Activity (%) (% of untreated) against Phakopsora pachyrhizi): 72%
- inhibition at 450 g/ha ([3]; applied alone, 450 g/ha, read-out: Observed Activity (% of untreated) against Phakopsora pachyrhizi): 77%
- inhibition at 450 g/ha ([3]; applied alone, 450 g/ha, read-out: Observed Activity (%) (% of untreated) against Phakopsora pachyrhizi): 77%

Molecule: CO/C=C(/C(=O)OC)c1ccccc1Oc1cc(Oc2ccccc2C#N)ncn1 [azoxystrobin, reference compound]
- Observed Activity (%) (% of untreated) ([3]; active ingredient alone, 2.25 g/ha): 0%
- Observed Activity (%) (% of untreated) ([3]; active ingredient alone, 4.5 g/ha): 15%
- Observed Activity (%) (% of untreated) ([3]; active ingredient alone, 9 g/ha): 23%
- Observed Activity (%) (% of untreated) ([3]; active ingredient alone, 18 g/ha): 9%
- Observed Activity (% of untreated) against Phakopsora pachyrhizi ([3]; applied alone, 2.25 g/ha): 0%
- Observed Activity (% of untreated) against Phakopsora pachyrhizi ([3]; applied alone, 4.5 g/ha): 15%
- Observed Activity (% of untreated) against Phakopsora pachyrhizi ([3]; applied alone, 9 g/ha): 23%
- Observed Activity (% of untreated) against Phakopsora pachyrhizi ([3]; applied alone, 18 g/ha): 9%

Molecule: CC1COC(Cn2cncn2)(c2ccc(Oc3ccc(Cl)cc3)cc2Cl)O1 (stereo not drawn) [Difenoconazole]
- inhibition at 22.5 g/ha [3, 8]: 3%
- inhibition at 45 g/ha [3, 9]: 10%
- inhibition at 90 g/ha [3, 10]: 24%
- inhibition at 22.5 g/ha [3, 11]: 3%
- inhibition at 45 g/ha [3, 12]: 10%
- inhibition at 90 g/ha [3, 13]: 24%

Molecule: CO/C=C(/C(=O)OC)c1ccccc1COc1cccc(C(F)(F)F)n1 [picoxystrobin]
- Activity (%) B ([4]; 0.1 ppm): 90%
- Activity (%) B ([4]; 0.3 ppm): 90%
